This passage reports emission maximum results from the Deep4Chem optical property database.

A short description of this data set: solvent given as SMILES.

For the compound `Clc1ccc(N2c3sc4ccccc4c3Sc3sc4ccccc4c32)cc1`, the emission maximum (in ClCCl) turned out to be 563 nm.
Compound `COc1cc(N(CC(=O)[O-])CC(=O)[O-])c2nc(COc3cc(C)ccc3N(CC(=O)[O-])CC(=O)[O-])ccc2c1` had an emission maximum (in O) of 500 nm.
`COc1cc(OC)cc(C(=O)OCc2c(C)c(=O)n3c(=O)c(C)c(C)n23)c1` came in with an emission maximum (in CCO) of 462 nm.
Where the note is “in ClCCl”, `C1=Cc2ccc(N(c3ccccc3)c3ccccc3)cc2C2(c3cc(N(c4ccccc4)c4ccccc4)ccc31)c1ccccc1-c1ccccc12` came in with an emission maximum of 461 nm.
Same read-out and setting: the value for `CCCCc1ccc2c(c1)c1ccc3cccc4c3c1c1c2c2cccc3ccc5c6cc(CCCC)ccc6c4c1c5c32` was 506 nm.
Consider `C(=C\c1nc2ccccc2[nH]1)/c1ccc(-c2nc3c4cccnc4c4ncccc4c3[nH]2)cc1`, for which the emission maximum worked out at 444 nm (in C1CCOC1), 450 nm (in CC#N), 452 nm (in CO) and 447 nm (in ClCCl).
Take `CN(C)c1ccc2ccc3oc(=O)c(-c4ccccc4)nc3c2c1`: the emission maximum (in c1ccccc1) worked out at 608 nm.
Consider `c1ccc2c(-c3cncnc3)c3ccccc3c(-c3cncnc3)c2c1`, for which the emission maximum came to 417 nm (in CCO) and 417 nm (in ClCCl).
Compound `COC(=O)c1c(-c2cc3ccccc3oc2=O)nn(-c2cccc(C)c2)c1C(=O)OC` registered an emission maximum (in ClCCl) of 401 nm.
On to `N#Cc1cc2ccc(C(F)(F)F)cc2c2c1ccc1ccccc12`, for which the emission maximum (in ClC(Cl)Cl) is on record as 408 nm.
For the compound `CCCCCCn1c2cc(C=C(C#N)C#N)sc2c2sc3c(sc4c5sc(C=C(C#N)C#N)cc5n(CCCCCC)c43)c21`, the emission maximum (in ClCCl) was found to be 620 nm.
Where the note is “in ClCCl”, `O=C1c2ccccc2C2=Nc3cccc4cccc(c34)N12` showed an emission maximum of 596 nm.
As for `C=Cc1cc2cc3c(cc2oc1=O)OCO3`, the emission maximum (in CC#N) was found to be 448 nm.
Take `COc1ccc(-c2cc3c4c(c2)CCc2cc(-c5ccc(OC)cc5)cc(c2-4)CC3)cc1`: the emission maximum reads like this: (in C1CCCCC1) 386.34 nm; (in C1CCOC1) 390.22 nm; (in CC#N) 388.06 nm; (in CCCCCC) 384.62 nm; (in CCO) 386.99 nm; (in CN(C)C=O) 392.15 nm. Further, the emission maximum runs as follows: (in CO) 386.56 nm; (in ClC(Cl)Cl) 391.46 nm; (in ClCCl) 391.08 nm.
For the compound `CC1=C2C3=C(CCc4ccccc43)C(C)=[N+]2[B-](F)(F)n2c(C)c3c(c21)-c1ccccc1CC3`, for the setting “in CC#N”, the emission maximum was 599 nm.
With `Cc1ccccc1/C(C#N)=C/c1ccc(N(C)C)cc1`, the emission maximum runs as follows: (in C1CCOC1) 484 nm; (in C1COCCO1) 476 nm; (in CC#N) 427 nm; (in CCCCCC) 431 nm; (in CCCCCCC) 433 nm; (in CCCCCO) 495 nm. In addition, the emission maximum was 502 nm (in CCCCO); 505 nm (in CCCO); 509 nm (in CCO); 490 nm (in CCOC(C)=O); 456 nm (in CN(C)C=O); 450 nm (in CO). Moreover, the emission maximum was determined as 453 nm (in CS(C)=O), 464 nm (in Cc1ccccc1) and 481 nm (in ClC(Cl)Cl).
Regarding `CCCCCCCCCCCCOc1cc(C(=O)Nc2ccc(-c3ccc4c(c3)C(=O)c3cc(-c5ccc(NC(=O)c6cc(OCCCCCCCCCCCC)c(OCCCCCCCCCCCC)c(OCCCCCCCCCCCC)c6)cc5)ccc3-4)cc2)cc(OCCCCCCCCCCCC)c1OCCCCCCCCCCCC`, the emission maximum (in C1CCOC1) is recorded as 542 nm.
For the compound `Cc1cc(C#Cc2ccccc2)c2ccc3c(C#Cc4ccccc4)cc(C#Cc4ccccc4)c4ccc1c2c43`, the emission maximum is, setting by setting: (in CS(C)=O) 461 nm; (in ClC(Cl)(Cl)Cl) 460 nm.
For the compound `OB(O)c1ccc(-c2ccc(N(c3ccccc3)c3ccccc3)cc2)cc1`, the emission maximum reads like this: (in C1CCCCC1) 384 nm; (in C1CCOC1) 410 nm; (in CCO) 422.4 nm; (in CCOCC) 398 nm; (in CO) 432 nm.
Regarding `COC(=O)[C@@H]1C(=O)Oc2ccccc2[C@H]1c1c[nH]c2ccccc12`, the emission maximum (in CS(C)=O) was found to be 376 nm.
`C(=C\c1ccc(N(c2ccccc2)c2ccccc2)cc1)/c1ccc(-c2cc(-c3ccccn3)nc(-c3ccccn3)c2)cc1` showed an emission maximum (in C1CCOC1) of 502 nm; an emission maximum (in C1COCCO1) of 466 nm; an emission maximum (in CC#N) of 560 nm; an emission maximum (in CCO) of 556 nm; an emission maximum (in ClCCl) of 519 nm.
`COc1ccc(-c2c3cc4ccccc4cc3c(C#Cc3ccccc3)c3cc4cc(C)sc4cc23)cc1` registered an emission maximum (in ClCCl) of 620 nm.
The compound `COc1ccc2c3c(c4ccc(C(C)(C)C)cc4c2c1)=C(c1cc(OC)c(OC)c(OC)c1)C1=Nc2c(-c4cc(OC)c(OC)c(OC)c4)c4c5ccc(C(C)(C)C)cc5c5cc(OC)ccc5c4n2[B-](F)(F)[N+]=31` returned an emission maximum (in Cc1ccccc1) of 810 nm.
Turning to `O=[N+]([O-])c1ccc(S(=O)(=O)Nc2ccc(C#Cc3ccc4ccc5ccc(C#Cc6ccc(NS(=O)(=O)c7ccc([N+](=O)[O-])cc7[N+](=O)[O-])cc6)c6ccc3c4c56)cc2)c([N+](=O)[O-])c1`, where the note is “in CO”, the emission maximum was 539 nm.
On to `CCN(CC)c1ccc2c(-c3ccccc3C(=O)O)c3c([o+]c2c1)/C(=C/c1nc(C)n2ccccc12)CCC3`, for which the emission maximum (in ClCCl) turned out to be 735 nm.
`COc1ccc(-n2nc(C#N)c(N3CCCC3)n2)cc1`: the emission maximum reads like this: (in CC#N) 418 nm; (in CCCCCC) 389 nm; (in CCO) 415 nm; (in CN(C)C=O) 418 nm; (in CO) 416 nm; (in ClC(Cl)Cl) 406 nm.
For the compound `C(=C\c1cnc2ccccc2n1)/c1ccc(N(c2ccccc2)c2ccccc2)cc1`, the emission maximum (in C1CCOC1) was found to be 535 nm; the emission maximum (in CC#N) was 596 nm; the emission maximum (in CCCCCCC) is given as 461 nm; the emission maximum (in CS(C)=O) is given as 598 nm; the emission maximum (in ClCCl) is given as 565 nm.
In the case of `COc1cc2c(cc1/C=C(\C#N)c1nc3ccccc3s1)c1ccccc1n2C`, the emission maximum runs as follows: (in C1CCOC1) 499 nm; (in CC#N) 509 nm; (in CCOC(C)=O) 493 nm; (in CN(C)C=O) 508 nm; (in CO) 510 nm; (in CS(C)=O) 518 nm. This compound came in with an emission maximum (in Cc1ccccc1) of 494 nm, an emission maximum (in ClC(Cl)Cl) of 504 nm and an emission maximum (in ClCCl) of 501 nm.
Turning to `Cc1cc(-c2nc(-c3ccccc3)nc(-c3ccccc3)n2)ccc1N1c2ccccc2[Si](c2ccccc2)(c2ccccc2)c2ccccc21`, the emission maximum was determined as 459 nm (in Cc1ccccc1) and 460 nm (in O=P(c1ccccc1)(c1ccccc1)c1ccccc1Oc1ccccc1P(=O)(c1ccccc1)c1ccccc1).
With `Nc1ccc2c(c1)C(=O)c1ccc(N)cc1C2=O`, the emission maximum reads like this: (in CC#N) 594 nm; (in CC(C)O) 616 nm; (in CCO) 616 nm; (in CCOC(C)=O) 547.6 nm; (in CO) 616 nm.
On to `CC(C)c1cccc(C(C)C)c1-n1c(=O)c2ccc3c4ccc5c(=O)n(-c6c(C(C)C)cccc6C(C)C)c(=O)c6cc7c(-c8ccccn8)nc8cc(c1=O)c2c3c8c7c4c56`, for which, for the setting “in ClC(Cl)Cl”, the emission maximum was 485 nm.
As for `C(=C\c1c[nH]c2ccc(Oc3ccccc3)cc12)/C1=[NH+]c2cccc3cccc1c23`, under “in CO”, the emission maximum is on record as 584 nm.
`C(#Cc1ccccc1)C1=Cc2ccc3ccccc3c2NB1c1ccccc1` showed an emission maximum (in C1CCCCC1) of 416 nm.
As to `Fc1ccc(C2=[N+]3C(=Nc4c5ccccc5c(-c5ccc(F)cc5)n4[B-]3(F)F)c3ccccc32)cc1`, the emission maximum (in ClCCl) came out at 724 nm.
On to `COC(=O)/C=C/C=C/C1=CC2=C(c3c(C)cc(C)cc3C)c3cc(/C=C/C=C/C(=O)OC)cn3[B-](F)(F)[N+]2=C1`, for which the emission maximum (in ClCCl) stood at 662 nm.
Take `CN1/C(=C/C=C(/C=C/c2sc3ccccc3[n+]2C)c2cccc(C(F)(F)F)c2)Sc2ccccc21`: the emission maximum stood at 665 nm (in CCO), 661 nm (in CO), 665 nm (in CS(C)=O) and 659 nm (in O).
For `CCCCN1C(=O)C(=C/C=C/C=C/C=C2N(CCCC)c3ccccc3N2CCCC)C(=O)N(CCCC)C1=S`, the emission maximum reads like this: (in CC#N) 688 nm; (in CCCCCC) 707 nm; (in CCO) 685 nm; (in CN(C)C=O) 690 nm; (in CO) 682 nm; (in Cc1ccccc1) 715 nm. Besides, the emission maximum was 702 nm (in ClC(Cl)Cl), 697 nm (in ClCCl) and 663 nm (in OCC(F)(F)F).
For the compound `Cc1cc(O)c(C(=O)/C=C/c2ccccc2O)c(=O)o1`, the emission maximum by setting is: (in CC#N) 510 nm; (in ClCCl) 477 nm.
Under “in C1CCOC1”, `CC(C)(C)c1ccc(C2=C(c3ccc(N4c5ccccc5C(C)(C)c5ccccc54)cc3)S(=O)(=O)c3c2sc(-c2ccc(N4c5ccccc5C(C)(C)c5ccccc54)cc2)c3-c2ccc(C(C)(C)C)cc2)cc1` came in with an emission maximum of 581 nm.
`CCCC(=O)c1c(OCOC)c(OCOC)c(C(=O)CCC)c2c1OCO2`: the emission maximum (in CC#N) is reported as 503 nm.
`F[B-]1(F)n2c(cc(Br)c2Br)C(c2ccccc2)=C2C=C(Br)C(Br)=[N+]21` gave an emission maximum (in ClC(Cl)Cl) of 570 nm.
Take `CC1(C)C(/C=C/C=C/C=C/C=C2/N(S(=O)(=O)[O-])c3ccc(S(=O)(=O)[O-])cc3C2(C)C)=[N+](S(=O)(=O)[O-])c2ccc(S(=O)(=O)[O-])cc21`: the emission maximum is, setting by setting: (in CO) 776 nm; (in O) 771 nm.
